According to patent US6461997B1, “Triazole sulfones having herbicidal activity” (Monsanto Technology LLC, priority 1999, dated 2002):

Experiments:
[1] = system: CHEAL (common lambsquarters); assay: Pre-emergence herbicidal activity, warm season; format: in vivo, Chenopodium album; details: GR80 = lowest tested rate (300, 100, 30, 10 g/ha) with 80% or greater inhibition; approx. 14 days after treating; 30/21° C.
How it was run: (§1)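 Seeds sown in sterilised fertilised topsoil received surface-applied compound in 50:50 acetone/water, typically at 300, 100, 30 and 10 g/ha, then greenhouse-grown at 30/21° C (warm-season species) or 18/13° C (cool-season species). Percent inhibition versus untreated plants was scored at about 14 days, giving GR80; an asterisk marks activity short of 80% at the top rate.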

[2] = system: SETFA (giant foxtail); assay: Pre-emergence herbicidal activity, warm season; format: in vivo, Setaria faberi; details: GR80 = lowest tested rate (300, 100, 30, 10 g/ha) with 80% or greater inhibition; approx. 14 days after treating; 30/21° C.
How it was run: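 Activity is expressed as the rate giving 80% inhibition, with 300, 100, 30 and 10 g/ha typically tested. An asterisk marks activity short of 80% at the top rate. Warm-season grasses were held at 30/21 °C; cool-season blackgrass and wild buckwheat at 18/13 °C; scoring at about 14 days.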

[3] = system: DIGSA (large crabgrass); assay: Pre-emergence herbicidal activity, warm season; format: in vivo, Digitaria sanguinalis; details: GR80 = lowest tested rate (300, 100, 30, 10 g/ha) with 80% or greater inhibition; approx. 14 days after treating; 30/21° C.
How it was run: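 Seeds were sown in sterilized, fertilized topsoil, covered, and the soil surface was sprayed with compound in 50:50 acetone/water at 300, 100, 30 and 10 g/ha. Pots were held at 30/21 °C day/night (PANMI, DIGSA) or 18/13 °C (ALOMY, POLCO). GR80 came from percent inhibition versus untreated plants at about 14 days.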

[4] = system: SINAR (wild mustard); assay: Pre-emergence herbicidal activity, cool season; format: in vivo, Sinapis arvensis; details: lowest tested rate with 80% or greater inhibition; rates 300, 100, 30, 10 g/ha; about 14 days
How it was run: as §1

[5] = system: ALOMY (blackgrass); assay: Pre-plant incorporated (PPI) herbicidal activity, cool season; format: in vivo, Alopecurus myosuroides; details: for Percent inhibition ALOMY: weed, PPI application
Description: (§2) In another set of tests, the pre-plant incorporated (PPI) activity of compounds of this invention was evaluated on the same species as for the pre-emergence tests described above. In the PPI tests the following procedure, designed to simulate PPI application, was used.
(§3) A pre-prepared topsoil mixture (described above) was placed in a pot and compacted to a depth of 1.0 to 1.25 cm from the top of the pot. Seeds of each of several monocotyledonous and dicotyledonous annual plant species were placed on top of the soil. A sufficient quantity of soil to cover the seeds and level fill the pot was weighed into an open container. A known amount of the test compound was dissolved or suspended in an organic solvent and applied by spraying to this cover soil. The cover soil was thoroughly mixed to distribute the test compound throughout the cover soil, and was then applied as a cover layer over the seeds. Untreated soil was used as a cover layer for control pots. After treatment the plants were placed in a greenhouse where they received 0.64 cm of overhead irrigation. All subsequent watering consisted of a light overhead mist and/or subirrigation as needed for germination and growth. Tables 9 and 10 below relate to warm season plant species which were placed after pre-emergence treatment in a greenhouse with a 30/21° C. day/night temperature regime. Tables 11 and 12 below relates to cool season plant species placed after pre-emergence treatment in a greenhouse or growth chamber with an 18/13° C. day/night temperature regime. Only the compounds of Examples 1, 6, 8, 11, 13 and 15-20 were included in PPI tests.
(§4) Approximately 14 days after planting and treating, the plants were observed and herbicidal efficacy recorded as percent inhibition by comparison with untreated plants.

[6] = system: XANST (cocklebur); assay: Pre-plant incorporated (PPI) herbicidal activity, warm season; format: in vivo, Xanthium strumarium; details: PPI application
Description: as §2, §3, §4

[7] = system: soybean (GLYMX); assay: Selectivity test, PPI, warm season crop; format: in vivo, Glycine max; details: PPI application
Description: as §3, §4
Additional pre-emergence and PPI tests were conducted by the procedures described above, on warm and cool season weed species in the presence of crop species, to assess herbicidal selectivity. Crop species included in warm season tests were corn (Zea mays, ZEAMX), rice (Oryza sativa, ORYSA) and soybean (Glycine max, GLYMX). Crop species included in cool season tests were wheat (Triticum aestivum, TRZAW), barley (Hordeunm vulgare, HORVX) and oilseed rape (Brassica napus, BRSNS).
Tables 15 and 16 relate to pre-emergence and PPI tests respectively on warm season species. Table 17 relates to pre-emergence tests on cool season species.

For `C=C(CC(F)(F)S(=O)(=O)c1ncn(C(=O)N(CC)CC)n1)C[Si](C)(C)C` [Example 20], the “Pre-emergence activity (GR80) CHEAL” value [1] was 300 g/ha, the “Pre-emergence activity (GR80) SETFA” value [2] was 100 g/ha and the “Pre-emergence activity (GR80) DIGSA” value [3] was 100 g/ha. For the same compound, the “Pre-emergence activity GR80, SINAR” value [4] was “[empty]”, the “PPI activity GR80, ALOMY” value ([5]; pre-plant incorporated, lowest tested rate with 80% or greater inhibition, about 14 days) was 100 g/ha and the “Percent inhibition ALOMY” value ([5]; 10 g/ha) was 0%. The “Percent inhibition ALOMY” value ([5]; 30 g/ha) was 0%, the “Percent inhibition ALOMY” value ([5]; 100 g/ha) was 20% and the “Percent inhibition ALOMY” value ([5]; 300 g/ha) was 50%. The “Percent inhibition ALOMY” value ([5]; 900 g/ha) was 100%, the “Percent inhibition XANST” value ([6]; 10 g/ha) was 0% and the “Percent inhibition XANST” value ([6]; 30 g/ha) was 0%. For the same compound, the “Percent inhibition XANST” value ([6]; 100 g/ha) was 0%, the “Percent inhibition XANST” value ([6]; 900 g/ha) was 50% and the “Percent inhibition GLYMX” value ([7]; 10 g/ha) was 0%. The “Percent inhibition GLYMX” value ([7]; 30 g/ha) was 0%, the “Percent inhibition GLYMX” value ([7]; 100 g/ha) was 0% and the “Percent inhibition GLYMX” value ([7]; 300 g/ha) was 0%. For the same compound, the “Percent inhibition GLYMX” value ([7]; 900 g/ha) was 30%.
